Reference: ChEMBL document CHEMBL6178000, “Gut Microbial Metabolite 4-Ethylphenylsulfate Is Selectively Deleterious and Anticancer to Colon Cancer Cells” (J Med Chem, 2025)
The source made the active and inactive calls. The calls are words filed in the database; no cut-off is given here.

Columns and labels:
HCT-116 [1] = experiment: Cytotoxicity against human HCT-116 cells assessed as reduction in cell viability at 10 mM incubated for 24 hrs by MTT assay (reference value: 100%); format: functional
HCT-116 [2] = experiment: Cytotoxicity against human HCT-116 cells assessed as reduction in cell viability at 10 mM incubated for 48 hrs by MTT assay (reference value: 100%); format: functional
HCT-116 [3] = experiment: Cytotoxicity against human HCT-116 cells assessed as reduction in cell viability at 10 mM incubated for 72 hrs by MTT assay (reference value: 100%); format: functional
HCT-116 [4] = experiment: Induction of morphological changes in human HCT-116 cells assessed as rounding of cells at 2.5 to 10 mM incubated for 24 to 72 hrs by inverted microscopic analysis; format: functional, cell-based; conditions: dose 2.5-10 mM, time 24-72 hrs
HCT-116 [5] = experiment: Induction of morphological changes in human HCT-116 cells assessed as blebbing of cells at 2.5 to 10 mM incubated for 24 to 72 hrs by inverted microscopic analysis; format: functional, cell-based; conditions: dose 2.5-10 mM, time 24-72 hrs
HCT-116 [6] = experiment: Induction of morphological changes in human HCT-116 cells assessed as appearance of disorganized cell layers at 2.5 to 10 mM incubated for 24 to 72 hrs by inverted microscopic analysis; format: functional, cell-based; conditions: dose 2.5-10 mM, time 24-72 hrs
HCT-116 [7] = experiment: Induction of morphological changes in human HCT-116 cells assessed as change in cell shape at 2.5 to 10 mM incubated for 24 to 72 hrs by inverted microscopic analysis; format: functional, cell-based; conditions: dose 2.5-10 mM, time 24-72 hrs
HCT-116 [8] = experiment: Induction of morphological changes in human HCT-116 cells assessed as appearance of lobules at 2.5 to 10 mM incubated for 24 to 72 hrs by inverted microscopic analysis; format: functional, cell-based; conditions: dose 2.5-10 mM, time 24-72 hrs
HCT-116 [9] = experiment: Induction of morphological changes in human HCT-116 cells assessed as rupture of plasma membrane at 2.5 to 10 mM incubated for 24 to 72 hrs by inverted microscopic analysis; format: functional, cell-based; conditions: dose 2.5-10 mM, time 24-72 hrs
HCT-116 [10] = experiment: Induction of morphological changes in human HCT-116 cells assessed as appearance of freely floating cells at 10 mM incubated for 24 to 72 hrs by inverted microscopic analysis; format: functional, cell-based; conditions: time 24-72 hrs
HCT-116 [11] = experiment: Cytotoxicity against human HCT-116 cells assessed as reduction in ATP level at 0.25 to 10 mM by CellTiter-Glo assay; format: functional, cell-based; conditions: dose 0.25-10 mM, time 24-72 hrs
HCT-116 [12] = experiment: Cytotoxicity against human HCT-116 cells assessed as reduction in ATP level incubated for 24 to 72 hrs by CellTiter-Glo assay; format: functional, cell-based; conditions: dose 0.25-10 mM, time 24-72 hrs
HCT-116 [13] = experiment: Inhibition of colony formation in human HCT-116 cells at 0.25 to 10 mM incubated for 10 days by crystal violet staining based analysis; format: functional, cell-based; conditions: dose 0.25-10 mM, time 10.0 day
HCT-116 [14] = experiment: Induction of apoptosis in human HCT-116 cells assessed as viable cells at 1.25 mM incubated for 48 hrs by Annexin V-FITC/PI staining based flow cytometric analysis (reference value: 42.5 %); format: functional; conditions: HCT-116, 48 h, read-out: Activity
HCT-116 [15] = experiment: Induction of apoptosis in human HCT-116 cells assessed as early apoptotic cells at 1.25 mM incubated for 48 hrs by Annexin V-FITC/PI staining based flow cytometric analysis (reference value: 55.2 %); format: functional
HCT-116 [16] = experiment: Induction of apoptosis in human HCT-116 cells assessed as late apoptotic cells at 1.25 mM incubated for 48 hrs by Annexin V-FITC/PI staining based flow cytometric analysis (reference value: 2.13 %); format: functional
HCT-116 [17] = experiment: Induction of apoptosis in human HCT-116 cells assessed as necrotic cells at 1.25 mM incubated for 48 hrs by Annexin V-FITC/PI staining based flow cytometric analysis (reference value: 0.16 %); format: functional
HCT-116 [18] = experiment: Induction of apoptosis in human HCT-116 cells assessed as viable cells at 2.5 mM incubated for 48 hrs by Annexin V-FITC/PI staining based flow cytometric analysis (reference value: 42.5 %); format: functional; conditions: HCT-116, 48 h, read-out: Activity
HCT-116 [19] = experiment: Induction of apoptosis in human HCT-116 cells assessed as early apoptotic cells at 2.5 mM incubated for 48 hrs by Annexin V-FITC/PI staining based flow cytometric analysis (reference value: 55.2 %); format: functional
HCT-116 [20] = experiment: Induction of apoptosis in human HCT-116 cells assessed as late apoptotic cells at 2.5 mM incubated for 48 hrs by Annexin V-FITC/PI staining based flow cytometric analysis (reference value: 2.13 %); format: functional
HCT-116 [21] = experiment: Induction of apoptosis in human HCT-116 cells assessed as necrotic cells at 2.5 mM incubated for 48 hrs by Annexin V-FITC/PI staining based flow cytometric analysis (reference value: 0.16 %); format: functional
HCT-116 [22] = experiment: Induction of apoptosis in human HCT-116 cells assessed as viable cells at 5 mM incubated for 48 hrs by Annexin V-FITC/PI staining based flow cytometric analysis (reference value: 42.5 %); format: functional; conditions: HCT-116, 48 h, read-out: Activity
HCT-116 [23] = experiment: Induction of apoptosis in human HCT-116 cells assessed as early apoptotic cells at 5 mM incubated for 48 hrs by Annexin V-FITC/PI staining based flow cytometric analysis (reference value: 55.2 %); format: functional
HCT-116 [24] = experiment: Induction of apoptosis in human HCT-116 cells assessed as late apoptotic cells at 5 mM incubated for 48 hrs by Annexin V-FITC/PI staining based flow cytometric analysis (reference value: 2.13 %); format: functional
HCT-116 [25] = experiment: Induction of apoptosis in human HCT-116 cells assessed as necrotic cells at 5 mM incubated for 48 hrs by Annexin V-FITC/PI staining based flow cytometric analysis (reference value: 0.16 %); format: functional
HCT-116 [26] = experiment: Induction of apoptosis in human HCT-116 cells assessed as viable cells at 10 mM incubated for 48 hrs by Annexin V-FITC/PI staining based flow cytometric analysis (reference value: 42.5 %); format: functional; conditions: HCT-116, 48 h, read-out: Activity
HCT-116 [27] = experiment: Induction of apoptosis in human HCT-116 cells assessed as early apoptotic cells at 10 mM incubated for 48 hrs by Annexin V-FITC/PI staining based flow cytometric analysis (reference value: 55.2 %); format: functional
HCT-116 [28] = experiment: Induction of apoptosis in human HCT-116 cells assessed as late apoptotic cells at 10 mM incubated for 48 hrs by Annexin V-FITC/PI staining based flow cytometric analysis (reference value: 2.13 %); format: functional
HCT-116 [29] = experiment: Induction of apoptosis in human HCT-116 cells assessed as necrotic cells at 10 mM incubated for 48 hrs by Annexin V-FITC/PI staining based flow cytometric analysis (reference value: 0.16 %); format: functional
HCT-116 [30] = experiment: Induction of cell cycle arrest in human HCT-116 cells assessed as accumulation of cells at G0/G1 phase at 1.25 mM incubated for 48 hrs by PI staining based flow cytometric analysis (reference value: 74.6 %); format: functional
HCT-116 [31] = experiment: Induction of cell cycle arrest in human HCT-116 cells assessed as accumulation of cells at G0/G1 phase at 2.5 mM incubated for 48 hrs by PI staining based flow cytometric analysis (reference value: 74.6 %); format: functional
HCT-116 [32] = experiment: Induction of cell cycle arrest in human HCT-116 cells assessed as accumulation of cells at G0/G1 phase at 5 mM incubated for 48 hrs by PI staining based flow cytometric analysis (reference value: 74.6 %); format: functional
HCT-116 [33] = experiment: Induction of cell cycle arrest in human HCT-116 cells assessed as accumulation of cells at G0/G1 phase at 10 mM incubated for 48 hrs by PI staining based flow cytometric analysis (reference value: 74.6 %); format: functional
HCT-116 [34] = experiment: Induction of cell cycle arrest in human HCT-116 cells assessed as accumulation of cells at S phase at 1.25 mM incubated for 48 hrs by PI staining based flow cytometric analysis (reference value: 10 %); format: functional
HCT-116 [35] = experiment: Induction of cell cycle arrest in human HCT-116 cells assessed as accumulation of cells at S phase at 2.5 mM incubated for 48 hrs by PI staining based flow cytometric analysis (reference value: 10 %); format: functional
HCT-116 [36] = experiment: Induction of cell cycle arrest in human HCT-116 cells assessed as accumulation of cells at S phase at 5 mM incubated for 48 hrs by PI staining based flow cytometric analysis (reference value: 10 %); format: functional
HCT-116 [37] = experiment: Induction of cell cycle arrest in human HCT-116 cells assessed as accumulation of cells at S phase at 10 mM incubated for 48 hrs by PI staining based flow cytometric analysis (reference value: 10 %); format: functional
HCT-116 [38] = experiment: Induction of cell cycle arrest in human HCT-116 cells assessed as accumulation of cells at G2/M phase at 1.25 mM incubated for 48 hrs by PI staining based flow cytometric analysis (reference value: 14 %); format: functional
HCT-116 [39] = experiment: Induction of cell cycle arrest in human HCT-116 cells assessed as accumulation of cells at G2/M phase at 2.5 mM incubated for 48 hrs by PI staining based flow cytometric analysis (reference value: 14 %); format: functional
HCT-116 [40] = experiment: Induction of cell cycle arrest in human HCT-116 cells assessed as accumulation of cells at G2/M phase at 5 mM incubated for 48 hrs by PI staining based flow cytometric analysis (reference value: 14 %); format: functional
HCT-116 [41] = experiment: Induction of cell cycle arrest in human HCT-116 cells assessed as accumulation of cells at G2/M phase at 10 mM incubated for 48 hrs by PI staining based flow cytometric analysis (reference value: 14 %); format: functional
HCT-116 [42] = experiment: Induction of ROS generation in human HCT-116 cells assessed as increase in superoxide anion at 1.25 to 10 mM incubated for 48 hrs by DHE fluorescence based analysis; format: functional, cell-based; conditions: dose 1.25-10 mM
HCT-116 [43] = experiment: Induction of apoptosis in human HCT-116 cells assessed as increase in Bax/Bcl2 ratio incubated for 48 hrs by Western blotting analysis; format: functional, cell-based; conditions: dose 2.5-5 mM
CCD-841CoN [44] = experiment: Cytotoxicity against human CCD-841CoN cells at 0.25 to 10 mM incubated for 24 to 48 hrs by MTT assay; format: toxicity, cell-based; conditions: 10000 µM, dose lower 0.25 mM, time lower 24 hrs, dose upper 10 mM, time upper 48 hrs
CCD-841CoN [45] = experiment: Cytotoxicity against human CCD-841CoN cells at 10 mM incubated for 72 hrs by MTT assay; format: toxicity, cell-based; conditions: 10000 µM
HCT-116 [46] = experiment: Induction of apoptosis in human HCT-116 cells assessed as increase in apoptotic rate at 1.25 mM incubated for 48 hrs by Annexin V-FITC/PI staining based flow cytometric analysis relative to control; format: functional
HCT-116 [47] = experiment: Induction of apoptosis in human HCT-116 cells assessed as increase in apoptotic rate at 2.5 mM incubated for 48 hrs by Annexin V-FITC/PI staining based flow cytometric analysis relative to control; format: functional
HCT-116 [48] = experiment: Induction of apoptosis in human HCT-116 cells assessed as increase in apoptotic rate at 5 mM incubated for 48 hrs by Annexin V-FITC/PI staining based flow cytometric analysis relative to control; format: functional
HCT-116 [49] = experiment: Induction of apoptosis in human HCT-116 cells assessed as increase in apoptotic rate at 10 mM incubated for 48 hrs by Annexin V-FITC/PI staining based flow cytometric analysis relative to control; format: functional

SMILES: CCc1ccc(OS(=O)(=O)O)cc1
- Activity (HCT-116 [1]): 55%
- Activity (HCT-116 [2]): 24%
- Activity (HCT-116 [3]): 7%
- Activity (HCT-116 [4]): Active
- Activity (HCT-116 [5]): Active
- Activity (HCT-116 [6]): Active
- Activity (HCT-116 [7]): Active
- Activity (HCT-116 [8]): Active
- Activity (HCT-116 [9]): Active
- Activity (HCT-116 [10]): Active
- Activity (HCT-116 [11]): Time-dependent-effect
- Activity (HCT-116 [12]): Dose-dependent-effect
- inhibition (HCT-116 [13]): Active
- viability at 1250 µM (HCT-116 [14]): 27.6%
- Activity (HCT-116 [15]): 68.6%
- Activity (HCT-116 [16]): 3.78%
- Activity (HCT-116 [17]): 0.048%
- viability at 2500 µM (HCT-116 [18]): 22.5%
- Activity (HCT-116 [19]): 70.1%
- Activity (HCT-116 [20]): 7.36%
- Activity (HCT-116 [21]): 0.065%
- viability at 5000 µM (HCT-116 [22]): 8.22%
- Activity (HCT-116 [23]): 71.9%
- Activity (HCT-116 [24]): 19.8%
- Activity (HCT-116 [25]): 0.076%
- viability at 10000 µM (HCT-116 [26]): 0.84%
- Activity (HCT-116 [27]): 48.3%
- Activity (HCT-116 [28]): 50.8%
- Activity (HCT-116 [29]): 0.067%
- Activity (HCT-116 [30]): 70.8%
- Activity (HCT-116 [31]): 64%
- Activity (HCT-116 [32]): 59.6%
- Activity (HCT-116 [33]): 55.4%
- Activity (HCT-116 [34]): 9%
- Activity (HCT-116 [35]): 15.4%
- Activity (HCT-116 [36]): 9.8%
- Activity (HCT-116 [37]): 13.5%
- Activity (HCT-116 [38]): 19.7%
- Activity (HCT-116 [39]): 19.7%
- Activity (HCT-116 [40]): 29.8%
- Activity (HCT-116 [41]): 27.2%
- Activity (HCT-116 [42]): Active
- Activity (HCT-116 [43]): Dose-dependent-effect
- Activity (CCD-841CoN [44]): Non-toxic
- Activity (CCD-841CoN [45]): Non-toxic
- Activity (HCT-116 [46]): 52%
- Activity (HCT-116 [47]): 73%
- Activity (HCT-116 [48]): 81%
- Activity (HCT-116 [49]): 97%
